# Where a name gives a salt, the structure may show the parent alone.
# Tests used:
# [1] = Solubility in aqueous hydrochloric acid solution; format: physicochemical; details: only in an aqueous hydrochloric acid solution; physiologically unacceptable pH
# Protocol: (§1) Only 1-2 mg of the hydrochloride salt dissolves in 1 mL of water, and unacceptably large volumes of water would be required for delivery of an effective dose. Furthermore, only in an aqueous hydrochloric acid solution at the physiologically unacceptable pH of 1-1.5 does enough of the hydrochloride acid addition salt of the compound of formula I dissolve to provide a suitably concentrated solution useful for intravenous use.
# [2] = Solubility in water; format: physicochemical
# Protocol: as §1
# [3] = In vivo conversion into the alcohol of formula II
# [4] = Solubility in aqueous lactic acid solution / pharmaceutically acceptable carriers; format: physicochemical
# [5] = Serum levels following oral dosing in monkeys; details: methyl cellulose formulation
# [6] = tested on: Aspergillus; details: SDB, geometric mean MIC and MFC
# [7] = tested on: cytochrome P-450 liver drug metabolizing enzymes; assay: Induction of cytochrome P-450 liver drug metabolizing enzymes, in vivo rat model; details: oral administration
# [8] = Serum levels following oral dosing in mice; details: methyl cellulose formulation
# [9] = Serum half life and tissue distribution following O.D. dosing
# [10] = Serum levels following oral dosing in rats; details: methyl cellulose formulation
# [11] = Serum levels following oral dosing in dogs; details: methyl cellulose formulation
compound,measurement,setting,value
"CCC(C(C)OC(=O)CN)n1ncn(-c2ccc(N3CCN(c4ccc(OCC5COC(Cn6cncn6)(c6ccc(F)cc6F)C5)cc4)CC3)cc2)c1=O (single isomer, unassigned; (-)) [Hydrochloride]",pH of aqueous hydrochloric acid at which enough salt dissolves to provide a suitably concentrated solution for intravenous use,[1],1-1.5
same,solubility in water,[2]; Hydrochloride,sparingly soluble
same,solubility,[2]; read-out: amount of salt dissolving in 1 mL of water,1000 to 2000 µg/mL
"CCC(C(C)OC(=O)CN)n1ncn(-c2ccc(N3CCN(c4ccc(OCC5COC(Cn6cncn6)(c6ccc(F)cc6F)C5)cc4)CC3)cc2)c1=O (single isomer, unassigned; (-))",solubility in water,[2]; listed as lactic acid addition salt,water soluble
same,in vivo conversion into the corresponding alcohol of formula II,[3],readily convertible in vivo
same,"solubility in pharmaceutically acceptable carriers, especially aqueous lactic acid solutions",[4]; aqueous lactic acid solutions,surprisingly soluble
same,solubility in aqueous lactic acid solution at physiologically acceptable pH,[4]; pH of at least about 3 to 3.5,soluble
"CCC(C(C)O)n1ncn(-c2ccc(N3CCN(c4ccc(OCC5COC(Cn6cncn6)(c6ccc(F)cc6F)C5)cc4)CC3)cc2)c1=O [compound of formula II, -(2 R-cis)-4-[4-[4-[4-[[-5-(2,4-Difluorophenyl)-tetrahydro-5-(1 H-1,2,4-triazol-1-ylmethyl)furan-3-yl]methoxy]phenyl]-1-piperazinyl]phenyl]-2-4-dihydro-2-[(1 S)-ethyl-2(S)-hydroxypropyl]-3 H-1,2,4-triazol-3-one]","serum levels compared to azoles of similar structure, monkeys",[5],consistently higher serum levels
same,in vitro antifungal activity against 37 species of Aspergillus compared to fluconazole,[6],superior antifungal in vitro activity
same,induction of cytochrome P-450 liver drug metabolizing enzymes,[7],not an inducer
same,"serum levels compared to azoles of similar structure, mice",[8],consistently higher serum levels
same,serum half lives,[9],very long serum half lives
same,tissue distribution,[9],good tissue distribution
same,"serum levels compared to azoles of similar structure, rats",[10],consistently higher serum levels
same,"serum levels compared to azoles of similar structure, dogs",[11],consistently higher serum levels

# Reference: patent publication US5883097A, “Soluble azole antifungal salt” (Schering Corporation, priority 1998, dated 1999)
